According to US20070299102A1, “Diphenyl Ox-Indol-2-One Compounds and Their Use in the Treatment of Cancer” (Topo Target A/S, priority 2004, published 2007):
“Also recorded” adds a separate entry of the source.

Columns and labels:
[1] = system: MDA-MB-231 cells; assay: Protein synthesis, 14C-Leucine incorporation (Cytostar-T); format: cell-based, human; conditions: all time-points
Description: (§1) As described in “Leucine Uptake [^14C] Cytostar-T assay, Amersham Biosciences” (CFA773).
(§2) And incubated overnight in growth medium. The next day medium was carefully aspirated (8-channel Vacuboy) and 50 μL of fresh pre-warmed medium (10% FCS, 10 mM HEPES pH 7.2-7.5) was added. Cells were allowed to equilibrate at 37° C. for 60 min. Test compounds were added in 50 μL medium and ^14C-leucine was added in 100 μL medium (0.5 μCi mL−1 final). Plates were sealed with transparent, adhesive foil. Plates were then incubated in a 37° C. for 6 h in a humidified incubator. Incorporation of radioactive leucine into proteins (a measure of protein synthesis) was then read by coincidence scintillation (counts per minute (CPM)) using a Wallac Microbeta detector at the indicated time-intervals. A reading a t=0 (5 min after sealing plates) for each well is subtracted as background.

[2] = system: MDA-MB-468 cells; assay: as above; format: cell-based, human; conditions: all time-points
Description: as §1, §2

[3] = system: PC-3 prostate cancer cell line; assay: Alamar Blue cell proliferation assay; format: cell-based, human
Description: (§3) Cell culture: All cell lines except MCF10A are maintained in RPMI medium containing 10% foetal Bovine Serum (FBS) 100 U/ml penicillin, and 100 μg/ml streptomycin. MCF10A is maintained in mammary epithelial growth medium (MEGM) with singlequot addition (BPE, hydrocortisone, hEGF, insulin, gentamicin/amphotericin-B) (Clonetics/Cambrex Bio Science). All cell lines are incubated at 37° C., 5% CO2, and 95% humidity.
(§4) Alamar Blue cell proliferation assay: Cells are plated in black cell culture treated Packard/Perkin Elmer 96-viewplates in 100 μl/well RPMI medium containing […], 100 U/ml penicillin, and 100 μg/ml streptomycin. Cell proliferation has been estimated in triplicate for all cell lines in medium containing either 1% FBS or 10% FBS. […]
(§5) The number of viable cells is estimated using an Alamar Blue assay that measures mitochondrial activity. […] Alamar Blue signal is read in a fluorescence plate reader using a 590 nm emission filter and a 530 nm excitation filter.
(§6) Data handling/calculations: Data are normalised to values from 0% activity (S0) to 100% activity (Smax). Average values for S0 and Smax are calculated and used to calculate percent activity (PCTACT) in the assays by the formula: PCTACT=(Xraw−Smax)/(S0−Smax)*100.

[4] = system: MCF-7 tumours; assay: Xenograft studies using MCF-7 tumours; format: in vivo, mice
Description: Nude balb/c mice weighing 25-45 grams are implanted with MCF-7 tumours by subcutaneous implantation in both flanks. […] Tumour volume is determined once or twice/week.

[5] = system: MDA-MB-468 tumours; assay: Xenograft studies using MDA-MB-468 tumours; format: in vivo, mice
[6] = system: BT-549 breast cancer cell line; assay: Alamar Blue cell proliferation assay; format: cell-based; conditions: Homo sapiens, BT-549, 72 h, BT-549, 10% FBS, read-out: EC50 (nM), IC50 values for inhibition of cell proliferation
Description: as §3
(§7) Alamar Blue cell proliferation assay: Cells are plated in black cell culture treated Packard/Perkin Elmer 96-viewplates in 100 μl/well RPMI medium containing […], 100 U/ml penicillin, and 100 μg/ml streptomycin. Cell proliferation has been estimated in triplicate for all cell lines in medium containing either 1% FBS or 10% FBS. The day after plating, the growth medium is changed to either 100 μl/well RPMI containing 1% FBS, 100 U/ml penicillin, 100 μg/ml streptomycin and 25 μg/ml gentamicin or to 100 μl/well RPMI containing 10% FBS, 100 U/ml penicillin, 100 μg/ml streptomycin and 25 μg/ml gentamicin. Compounds are added in 9 point half-log dilution series at concentrations indicated in the graphs. […] Briefly, compounds are diluted in compound plates in growth medium containing either 1% FBS or 10% FBS corresponding to the medium in the plates. Compounds are transferred to the cell plates by transfer of 100 μl/well, resulting in a total volume of 200 μl/well containing compound at concentrations indicated in graphs and 0.25% DMSO. Terfenedine is used as a control for maximal cell kill in wells containing 50 μM terfenedine and 0.5% DMSO (Smax). Negative control wells (So) contain medium with 0.25% DMSO.
(§8) After compound addition cell plates are incubated undisturbed for 72 hours at 37° C., 5% CO2, and 95% humidity.
(§9) The number of viable cells is estimated using an Alamar Blue assay that measures mitochondrial activity. The medium is decanted and replaced with 150 μl/well RPMI medium without phenol-red containing 100 U/ml penicillin, and 100 μg/ml streptomycin and 10% Alamar Blue. The plates are placed in the incubator at 37° C., 5% CO2, and 95% humidity for 2 hours. Then, plates are moved to a table and allowed to cool to room temperature without stacking the plates. Alamar Blue signal is read in a fluorescence plate reader using a 590 nm emission filter and a 530 nm excitation filter.
as §6

[7] = system: non-transformed human breast epithelial cell line MCF10A; assay: Alamar Blue cell proliferation assay; format: cell-based; conditions: MCF-10A, serum-free MEGM medium, 72 hours, read-out: EC50 (nM), IC50 values for inhibition of cell proliferation
Description: as §3, §7, §8, §9, §6

[8] = system: T47-D breast cancer cell line; assay: Alamar Blue cell proliferation assay; format: cell-based; conditions: Homo sapiens, T47D, 72 h, 10% FBS, read-out: EC50 (nM), IC50 values for inhibition of cell proliferation
Description: as §3, §7, §8, §9, §6

[9] = system: HCC-1954 breast cancer cell line; assay: Alamar Blue cell proliferation assay; format: cell-based; conditions: Homo sapiens, HCC1954, 72 h, HCC-1954, 10% FBS, read-out: EC50 (nM), IC50 values for inhibition of cell proliferation
Description: as §3, §7, §8, §9, §6

[10] = system: MCF7 breast cancer cell line; assay: Alamar Blue cell proliferation assay; format: cell-based; conditions: Homo sapiens, MCF7, 72 h, MCF7, 10% FBS, read-out: EC50 (nM), IC50 values for inhibition of cell proliferation
Description: as §3, §7, §8, §9, §6

[11] = system: DU-145 prostate cancer cell line; assay: Alamar Blue cell proliferation assay; format: cell-based; conditions: Homo sapiens; DU-145, 10% FBS, 72 hours; read-out: EC50 (nM); IC50 values for inhibition of cell proliferation
Description: as §3, §7, §8, §9, §6

[12] = system: MDA-MB-468 breast cancer cell line; assay: Alamar Blue cell proliferation assay; format: cell-based; conditions: Homo sapiens, MDA-MB-468, 72 h, MDA-MB-468, 10% FBS, read-out: EC50 (nM), IC50 values for inhibition of cell proliferation
Description: as §3, §7, §8, §9, §6

[13] = system: PC-3/M prostate cancer cell line; assay: Alamar Blue cell proliferation assay; format: cell-based; conditions: Homo sapiens, 10% FBS, 72 hours, read-out: EC50 (nM), IC50 values for inhibition of cell proliferation
Description: as §3, §7, §8, §9, §6

[14] = system: ZR75-1 breast cancer cell line; assay: Alamar Blue cell proliferation assay; format: cell-based; conditions: Homo sapiens, ZR-75-1; ZR75-1, 10% FBS, 72 hours; read-out: EC50 (nM); IC50 values for inhibition of cell proliferation
Description: as §3, §7, §8, §9, §6

[15] = system: LnCaP prostate cancer cell line; assay: Alamar Blue cell proliferation assay; format: cell-based; conditions: Homo sapiens, 10% FBS, 72 hours, read-out: EC50 (nM), IC50 values for inhibition of cell proliferation
Description: as §3, §7, §8, §9, §6

[16] = system: MDA-MB-435S breast cancer cell line; assay: Alamar Blue cell proliferation assay; format: cell-based; conditions: Homo sapiens, 10% FBS, 72 hours, read-out: EC50 (nM), IC50 values for inhibition of cell proliferation
Description: as §3, §7, §8, §9, §6

[17] = system: SKBr-3 breast cancer cell line; assay: Alamar Blue cell proliferation assay; format: cell-based; conditions: Homo sapiens, SK-BR-3, 72 h, SKBr-3, 10% FBS, read-out: EC50 (nM), IC50 values for inhibition of cell proliferation
Description: as §3, §7, §8, §9, §6

[18] = system: MDA-MB-231 breast cancer cell line; assay: Alamar Blue cell proliferation assay; format: cell-based; conditions: Homo sapiens; MDA-MB-231, 10% FBS, 72 hours; read-out: EC50 (nM); IC50 values for inhibition of cell proliferation
Description: as §3, §7, §8, §9, §6

[19] = system: MDA-MB-453 breast cancer cell line; assay: Alamar Blue cell proliferation assay; format: cell-based; conditions: Homo sapiens, MDA-MB-453, 72 h, MDA-MB-453, 10% FBS, read-out: EC50 (nM), IC50 values for inhibition of cell proliferation
Description: as §3, §7, §8, §9, §6

[20] = system: BT-474 breast cancer cell line; assay: Alamar Blue cell proliferation assay; format: cell-based; conditions: Homo sapiens, BT-474, 72 h, BT-474, 10% FBS, read-out: EC50 (nM), IC50 values for inhibition of cell proliferation
Description: as §3, §7, §8, §9, §6

[21] = system: panel of human breast cancer cell lines; assay: Alamar Blue cell proliferation assay, summary over the breast panel; format: cell-based; conditions: 10% FBS; FIGS. 9, 10 and 11
Description: as §3, §4, §5, §6

[22] = system: panel of prostate cancer cell lines; assay: Alamar Blue cell proliferation assay, summary over the prostate panel; format: cell-based; conditions: 10% FBS
Description: as §3, §4, §5, §6

[23] = system: mTOR pathway proteins (p70S6K, S6, 4E-BP1, AKT, cyclin D3) in MDA-468 cells; assay: Western Blots on proteins involved in translational control; format: cell-based, human; conditions: MDA-468, 24 hour incubation
Description: 16-24 hours after, the growth medium were shifted to growth medium containing compounds.
After 24 or 48 hours incubation with compounds, cells were washed with ice cold PBS buffer and harvested in lysis buffer: Cytobuster reagent (Novagen) containing phosphatase inhibitor cocktail 1 and 2 and protease inhibitor cocktail (Sigma). Samples containing an equal amount of protein were loaded onto 7% Tris Acetate gels, 10% Bis-Tris in MES buffer or 12% Bis-Tris gels using MOPS running buffer (Invitrogen). Following electrophoresis the samples were blotted onto a PVDF membrane (Invitrogen). For membrane blocking and antibody incubations of p70 S6K, Phospho-p70 S6K (Thr389), PathscanI and S6 antibodies (Cell Signalling Technology) a buffer containing 0.2% Tween-20, 5% non-fat dry milk, 5% FBS, in Tris buffered Saline (TBS) were used. For immunoblotting of 4EBP1, Phospho 4EBP1 (Thr37/46), Phospho 4EBP1 (Ser65) (Cell Signalling Technology) and Cyclin D3 (Santa Cruz) a protocol from Cell Signalling Technology were used. Cell Signalling Technology blocking buffer contains 0.1% Tween-20, 5% non fat dry milk in TBS and primary antibody dilution buffer contains 0.1% Tween-20, 5% BSA in TBS. Before adding primary antibody dilution buffer to the membranes, the blots were rinsed briefly in 0.1% Tween-20. […] Peroxidase activity was detected using the ECL detection system (Amersham Biosciences).

[24] = monotherapy, PO daily for 15 days or IV weekly for 4 weeks

## COc1ccc(C[C@H]2NC[C@H](O)[C@H]2OC(C)=O)cc1 [Anisomycin]
[1]
  Effect of control compounds on 14C-Leucine incorporation: completely inhibit
[2]
  Effect of control compounds on 14C-Leucine incorporation: completely inhibit

## O=C1Nc2c(ccc(F)c2F)C1(c1ccc(O)cc1)c1ccc(O)cc1 [Compound 41, 6,7-Difluoro-3,3-bis-(4-hydroxy-phenyl)-1,3-dihydro-indol-2-one]
[3]; 10% FBS
  Effect on proliferation of PC-3: inhibit the proliferation
[4]; [24]
  Tumour size / growth, MCF-7 xenograft: reduces the rate of MCF-7 human breast cancer tumour cell growth; also recorded: reduces the size of MCF7 tumours
[4]; monotherapy, PO or IV
  Tumour regression, MCF-7 xenograft: induces tumour regression at all doses tested; also recorded: tumour regression is noted using all doses tested
[4]; mouse, in vivo
  Effect compared with paclitaxel, MCF-7 xenograft: more pronounced than following administration of paclitaxel; also recorded: appears to be greater than paclitaxel
  Per-oral versus intravenous dosing, MCF-7 xenograft: equally effective by the per-oral and intravenous dosing
[5]; [24]
  Rate of tumour growth, MDA-MB-468 xenograft: reduces the rate of MDA-MB-468 human breast cancer tumour cell growth
[5]; monotherapy, PO or IV
  Tumour regression, MDA-MB-468 xenograft: induces tumour regression at all doses tested; also recorded: more pronounced tumour regression at all doses tested
[5]; mouse, in vivo
  Effect compared with paclitaxel, MDA-MB-468 xenograft: more pronounced than following administration of paclitaxel; also recorded: more effective than paclitaxel
  Per-oral versus intravenous dosing, MDA-MB-468 xenograft: equally effective by per-oral and intravenous dosing

## C[C@@H]1C[C@@H]([C@H](O)CC2CC(=O)NC(=O)C2)C(=O)[C@@H](C)C1 [Cycloheximide]
[1]
  Effect of control compounds on 14C-Leucine incorporation: completely inhibit
[2]
  Effect of control compounds on 14C-Leucine incorporation: completely inhibit

## O=C1Nc2ccccc2C1(c1ccc(O)cc1)c1ccc(O)cc1 [Oxyphenisatine]
[3]; Homo sapiens, PC-3, 10% FBS, 72 hours, read-out: EC50 (nM), IC50 values for inhibition of cell proliferation
  IC50: 899 nM
[6]
  IC50: 859 nM
[7]
  IC50: > 3000 nM
[8]
  IC50: 324 nM
[9]
  IC50: 912 nM
[10]
  IC50: 517 nM
[11]
  IC50: > 3000 nM
[12]
  IC50: 935 nM
[13]
  IC50: > 3000 nM
[14]
  IC50: 285 nM
[15]
  IC50: 790 nM
[16]
  IC50: > 3000 nM
[17]
  IC50: 527 nM
[18]
  IC50: > 3000 nM
[19]
  IC50: 228 nM
[20]
  IC50: 324 nM
[21]
  Potency relative to Compound 3, breast cell line panel: slightly lower in potency
[22]
  Potency relative to Compound 3, prostate cell line panel: lower potency than Compound 3

## CO[C@H]1C[C@@H]2CC[C@@H](C)[C@@](O)(O2)C(=O)C(=O)N2CCCC[C@H]2C(=O)O[C@H]([C@H](C)C[C@@H]2CC[C@@H](O)[C@H](OC)C2)CC(=O)[C@H](C)/C=C(\C)[C@@H](O)[C@@H](OC)C(=O)[C@H](C)C[C@H](C)/C=C/C=C/C=C/1C [rapamycin]
[23]
  AKT phosphorylation on Ser473 (Western blot): not inhibited
